Measured values from US20080234262A1 (Wyeth, priority 2007, published 2008).

Tests used:
PI3K = PI3K (Homo sapiens, UniProt P42336); experiment: Fluorescence polarization assay for PI3K; type: biochemical; details: PI3Kα; read-out: PI3Kα IC50;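 note: PI3K kinase reaction on PIP2 with ATP, 30-60 min, product sensed by GST-GRP with red probe in fluorescence polarization (mP), controls without enzyme and at zero time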
prostate line LNCap = experiment: In vitro cell culture growth assay (MTS), LNCap; type: cell-based, human; details: LNCap cells, three days after drug treatment;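 note: viable cell density read by absorbance at 490 nm, growth expressed as percent of vehicle-treated cells on the same plate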
breast line MDA468 = experiment: In vitro cell culture growth assay (MTS), MDA468; type: cell-based, human; details: MDA468 cells, three days after drug treatment
In short: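 Growth measured as percent of same-plate vehicle control by MTS metabolic dye conversion (A490). Breast MDA468 and prostate LNCap cells, plated a day ahead, were exposed to compounds for 3 days.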

Sequence of PI3K (P42336 whole entry): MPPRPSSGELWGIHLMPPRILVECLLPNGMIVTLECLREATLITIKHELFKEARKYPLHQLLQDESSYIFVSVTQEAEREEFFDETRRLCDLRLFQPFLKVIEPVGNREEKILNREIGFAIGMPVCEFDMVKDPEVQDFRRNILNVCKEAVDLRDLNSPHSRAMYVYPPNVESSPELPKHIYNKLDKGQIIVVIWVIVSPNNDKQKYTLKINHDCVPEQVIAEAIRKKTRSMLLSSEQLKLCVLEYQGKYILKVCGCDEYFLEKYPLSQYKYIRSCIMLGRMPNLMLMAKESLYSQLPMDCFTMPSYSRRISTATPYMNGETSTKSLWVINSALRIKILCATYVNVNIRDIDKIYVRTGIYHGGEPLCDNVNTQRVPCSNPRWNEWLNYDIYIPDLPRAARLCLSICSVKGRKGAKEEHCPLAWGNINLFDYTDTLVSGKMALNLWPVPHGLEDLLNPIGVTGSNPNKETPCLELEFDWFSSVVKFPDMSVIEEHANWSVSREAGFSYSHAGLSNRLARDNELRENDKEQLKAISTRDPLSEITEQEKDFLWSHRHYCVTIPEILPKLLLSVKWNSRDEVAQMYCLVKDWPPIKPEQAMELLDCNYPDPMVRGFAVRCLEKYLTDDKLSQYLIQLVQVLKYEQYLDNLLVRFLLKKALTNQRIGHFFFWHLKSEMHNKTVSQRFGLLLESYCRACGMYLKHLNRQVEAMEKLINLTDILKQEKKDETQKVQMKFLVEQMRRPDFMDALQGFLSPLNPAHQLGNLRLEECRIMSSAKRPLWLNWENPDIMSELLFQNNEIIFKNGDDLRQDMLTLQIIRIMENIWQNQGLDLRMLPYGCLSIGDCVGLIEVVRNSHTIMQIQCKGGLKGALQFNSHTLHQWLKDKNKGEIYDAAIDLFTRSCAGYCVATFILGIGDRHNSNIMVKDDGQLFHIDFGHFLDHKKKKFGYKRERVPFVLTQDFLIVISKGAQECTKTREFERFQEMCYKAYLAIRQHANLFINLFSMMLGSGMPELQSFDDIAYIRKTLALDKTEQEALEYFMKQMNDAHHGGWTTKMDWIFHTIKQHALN
Sequence of PI3K (P27986 whole entry partner): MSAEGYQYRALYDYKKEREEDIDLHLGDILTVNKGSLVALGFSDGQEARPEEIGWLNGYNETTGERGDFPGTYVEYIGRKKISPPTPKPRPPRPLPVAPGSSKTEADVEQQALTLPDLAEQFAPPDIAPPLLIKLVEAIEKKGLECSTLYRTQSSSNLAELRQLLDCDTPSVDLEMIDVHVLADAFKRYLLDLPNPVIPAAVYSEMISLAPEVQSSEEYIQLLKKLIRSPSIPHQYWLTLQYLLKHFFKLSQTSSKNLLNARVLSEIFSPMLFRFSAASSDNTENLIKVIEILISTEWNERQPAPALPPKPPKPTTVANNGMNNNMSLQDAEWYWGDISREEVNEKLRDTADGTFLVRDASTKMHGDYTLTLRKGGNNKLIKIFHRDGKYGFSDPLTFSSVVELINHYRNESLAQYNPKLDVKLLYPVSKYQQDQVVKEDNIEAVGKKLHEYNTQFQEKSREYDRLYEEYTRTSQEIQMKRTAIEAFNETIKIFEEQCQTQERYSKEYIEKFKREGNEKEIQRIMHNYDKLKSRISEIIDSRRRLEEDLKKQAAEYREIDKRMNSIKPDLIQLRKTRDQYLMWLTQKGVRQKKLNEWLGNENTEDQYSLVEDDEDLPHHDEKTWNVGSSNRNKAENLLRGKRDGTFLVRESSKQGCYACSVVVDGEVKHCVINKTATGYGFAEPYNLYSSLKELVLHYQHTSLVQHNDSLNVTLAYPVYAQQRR

Structure (SMILES)	IC50 (PI3K) [nM]	IC50 (prostate line LNCap) [nM]	IC50 (breast line MDA468) [nM]
O=C1Cc2cc(-c3nc(N4CCOCC4)c4cnn(-c5ccccc5)c4n3)ccc2N1 [Compound 677, 5-(4-morpholin-4-yl-1-phenyl-1H-pyrazolo[3,4-d]pyrimidin-6-yl)-1,3-dihydro-2H-indol-2-one]	1030	> 60000	> 60000
Nc1ccnc(-c2nc(N3CCOCC3)c3cnn(C4CCN(C(=O)c5cccnc5)CC4)c3n2)c1 [Compound 678, 2-{4-morpholin-4-yl-1-[1-(pyridin-3-ylcarbonyl)piperidin-4-yl]-1H-pyrazolo[3,4-d]pyrimidin-6-yl}pyridin-4-amine]	6660	39000	> 60000
Nc1ccc(-c2nc(N3CCOCC3)c3cnn(C4CCN(C(=O)c5cccnc5)CC4)c3n2)nc1 [Compound 679, 6-{4-morpholin-4-yl-1-[1-(pyridin-3-ylcarbonyl)piperidin-4-yl]-1H-pyrazolo[3,4-d]pyrimidin-6-yl}pyridin-3-amine]	4040	45000	> 60000
Nc1ccnc(-c2nc(N3CCOCC3)c3cnn(-c4ccccc4)c3n2)c1 [Compound 681, 2-(4-morpholin-4-yl-1-phenyl-1H-pyrazolo[3,4-d]pyrimidin-6-yl)pyridin-4-amine]	1460	> 60000	> 60000
COC(=O)Nc1ccc(-c2nc(N3CCOCC3)c3cnn(C4CCN(C(=O)c5ccccn5)CC4)c3n2)cc1 [Compound 685, methyl (4-{4-morpholin-4-yl-1-[1-(pyridin-2-ylcarbonyl)piperidin-4-yl]-1H-pyrazolo[3,4-d]pyrimidin-6-yl}phenyl)carbamate]	1920	200	580
COC(=O)Nc1ccc(-c2nc(N3CCOCC3)c3cnn(C4CCN(C(=O)c5ccccc5F)CC4)c3n2)cc1 [Compound 687, methyl (4-{1-[1-(2-fluorobenzoyl)piperidin-4-yl]-4-morpholin-4-yl-1H-pyrazolo[3,4-d]pyrimidin-6-yl}phenyl)carbamate]	1140	250	480

Now those with a lower IC50 (PI3K), led by results:

IC50 (PI3K) [nM]	IC50 (prostate line LNCap) [nM]	Structure (SMILES)	IC50 (breast line MDA468) [nM]
440	20000	c1ccc(-n2ncc3c(N4CCOCC4)nc(-c4ccc5[nH]ncc5c4)nc32)cc1 [Compound 676, 6-(1H-indazol-5-yl)-4-morpholin-4-yl-1-phenyl-1H-pyrazolo[3,4-d]pyrimidine]	> 60000
778	250	COC(=O)Nc1ccc(-c2nc(N3CCOCC3)c3cnn(C4CCN(C(=O)c5ccccc5Cl)CC4)c3n2)cc1 [Compound 688, methyl (4-{1-[1-(2-chlorobenzoyl)piperidin-4-yl]-4-morpholin-4-yl-1H-pyrazolo[3,4-d]pyrimidin-6-yl}phenyl)carbamate]	750
750	1200	COC(=O)Nc1ccc(-c2nc(N3CCOCC3)c3cnn(C4CCN(Cc5ccc(F)cc5)CC4)c3n2)cc1 [Compound 694, methyl (4-{1-[1-(4-fluorobenzyl)piperidin-4-yl]-4-morpholin-4-yl-1H-pyrazolo[3,4-d]pyrimidin-6-yl}phenyl)carbamate]	2600
388	2000	COC(=O)Nc1ccc(-c2nc(N3CCOCC3)c3cnn(C4CCN(Cc5ccc(Cl)cc5)CC4)c3n2)cc1 [Compound 695, methyl (4-{1-[1-(4-chlorobenzyl)piperidin-4-yl]-4-morpholin-4-yl-1H-pyrazolo[3,4-d]pyrimidin-6-yl}phenyl)carbamate]	9000
186	56	CNC(=O)Nc1ccc(-c2nc(N3CCOCC3)c3cnn(C4CCN(CC(F)(F)F)CC4)c3n2)cc1 [Compound 714, 1-methyl-3-(4-{4-morpholin-4-yl-1-[1-(2,2,2-trifluoroethyl)piperidin-4-yl]-1H-pyrazolo[3,4-d]pyrimidin-6-yl}phenyl)urea]	320
